Measurements: patent publication US20140121231A1, “PYRANOPYRIDONE INHIBITORS OF TANKYRASE” (Hoffmann-La Roche, Inc., priority 2012, published 2014)

What follows are compounds tested against T1, PARP1 (His6-PARP1, full length) (Homo sapiens, UniProt P09874) (assay: TR-FRET Binding Assay (Example 71), PARP1). Conditions: TR-FRET assay of Example 71 with His6-PARP1.
T1 construct: His6-PARP1 (full length) can be substituted for His6-TNKS 1
Procedure, shortened: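 Competition binding: test compound displaces biotin-IWR2 from His6-PARP1 (full length), read by Eu-streptavidin/APC-anti-His6 TR-FRET. PARP1 30 min at 26°C with compound and probe in Tris pH 7.4 buffer with DTT, BSA and NP-40, then detection reagents for 60 min. Excitation 330 nm, emission 615 and 665 nm; […].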

T1 sequence (P09874 whole entry, species assumed): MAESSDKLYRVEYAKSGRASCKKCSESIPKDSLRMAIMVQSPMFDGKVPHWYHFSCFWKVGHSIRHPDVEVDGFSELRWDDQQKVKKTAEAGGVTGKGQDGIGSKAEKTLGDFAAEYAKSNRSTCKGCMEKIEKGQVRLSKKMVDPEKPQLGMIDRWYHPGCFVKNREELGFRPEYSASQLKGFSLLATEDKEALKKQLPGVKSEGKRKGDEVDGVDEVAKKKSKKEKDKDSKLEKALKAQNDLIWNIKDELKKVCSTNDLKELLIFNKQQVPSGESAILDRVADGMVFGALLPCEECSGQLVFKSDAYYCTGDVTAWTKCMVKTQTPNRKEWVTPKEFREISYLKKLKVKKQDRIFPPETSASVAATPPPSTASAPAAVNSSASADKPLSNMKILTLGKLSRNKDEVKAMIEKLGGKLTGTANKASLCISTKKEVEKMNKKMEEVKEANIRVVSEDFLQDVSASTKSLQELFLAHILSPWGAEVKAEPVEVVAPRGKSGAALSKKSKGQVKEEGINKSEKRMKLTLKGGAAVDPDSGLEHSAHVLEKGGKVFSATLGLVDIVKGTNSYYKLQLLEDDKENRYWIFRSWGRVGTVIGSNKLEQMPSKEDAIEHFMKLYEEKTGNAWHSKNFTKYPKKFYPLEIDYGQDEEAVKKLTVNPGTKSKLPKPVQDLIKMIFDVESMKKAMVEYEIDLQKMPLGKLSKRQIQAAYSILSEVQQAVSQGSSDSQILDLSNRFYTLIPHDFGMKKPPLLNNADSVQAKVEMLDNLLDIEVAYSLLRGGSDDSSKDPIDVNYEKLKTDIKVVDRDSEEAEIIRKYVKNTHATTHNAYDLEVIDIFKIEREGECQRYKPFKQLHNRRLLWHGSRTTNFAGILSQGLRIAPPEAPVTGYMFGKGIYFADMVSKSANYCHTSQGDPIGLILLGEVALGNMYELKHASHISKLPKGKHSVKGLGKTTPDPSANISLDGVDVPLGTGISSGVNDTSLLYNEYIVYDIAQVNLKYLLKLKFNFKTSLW

Question: With `Cc1cccc2c(=O)[nH]c3c(c12)COC(C(C)(C)CO)C3` (racemic) [Compound I-1, rac-2-(2-Hydroxy-1,1-dimethyl-ethyl)-5-methyl-1,2,4,10-tetrahydro-3-oxa-10-aza-phenanthren-9-one] as the compound, how does the IC50 read?
Answer: 91.8 nM

These compounds were tested on Wnt stimulated TCF transcriptional activity (assay: Tankyrase 1 Assay (Example 72): HEK293-TS 112 TCF reporter cell line). Conditions: footnote 2: Tankyrase 1 inhibition assay in Example 72 (TOPbrite luciferase reporter, Wnt3A 0.5 ug/mL, 16 hours); read-out: TNKS1 IC50.
Assay type: cell-based
Method: Inhibition of the Wnt stimulated TCF transcriptional activity by tankyrase inhibitors was determined utilizing a HEK293-TS 112 TCF reporter cell line. A Wnt-responsive luciferase reporter named TOPbrite was constructed by cloning the enhancer element of Super8xTOPFlash containing eight TCF/LEF binding sites into the pGL4.28 vector (Promega) upstream of the minimal promoter element, and selecting for hygromycin B resistance (50 μg/ml). Cells were seeded into 384-well plates in the presence of 0.5 ug/mL of Wnt3A at a density of 20,000 cells per well in 25 ul of F:12 DMEM media supplemented with 10% FBS and 2 mM Glutamax. Cells seeded without the addition of Wnt3A were used as background signal. Compounds of various concentrations were added to cells and incubated at 37 degrees with 5% CO2 for 16 hours. The assay was terminated with the addition of Promega Dual Glo kit per manufacturer's instructions. A ratio of TOPbrite Firefly Luciferase and SV40 Renillla Luciferase was calculated and the background from the neutral wells was subtracted yielding the final normalized measurement of TCF transcriptional activity. Compound IC50s were determined by four-parameter curve fitting using GeneData software.

Question: Which IC50 does the source give for `Cc1cccc2c(=O)[nH]c3c(c12)COC(C(C)(C)CO)C3` (racemic) [Compound I-1, rac-2-(2-Hydroxy-1,1-dimethyl-ethyl)-5-methyl-1,2,4,10-tetrahydro-3-oxa-10-aza-phenanthren-9-one] here?
Answer: 10.6 nM

Question: For `CC(C)C1Cc2[nH]c(=O)c3cccc(F)c3c2CO1` (stereo not shown) [Compound I-69, 10-Fluoro-3-isopropyl-1 3 4 5-tetrahydropyrano[4,3-c]isoquinolin-6-one], which IC50 is on record?
Answer: 11.2 nM

Question: `CC(C)C1Cc2[nH]c(=O)c3cccc(Cl)c3c2CO1` (stereo not shown) [Compound I-70, 10-chloro-3-isopropyl-1 3 4 5-tetrahydropyrano[4,3-c]isoquinolin-6-one] was tested. Which IC50 did it give?
Answer: 12.9 nM

Question: For `Cc1cccc2c(=O)[nH]c3c(c12)COC(C1CCN(C2COC2)CC1)C3` (stereo not shown) [Compound I-71, 10-methyl-3-[1-(oxetan-3-yl)-4-piperidyl]-1 3 4 5-tetrahydropyrano[4,3-c]isoquinolin-6-one], which IC50 is on record?
Answer: 2.01 nM

Question: `Cc1cccc2c(=O)[nH]c3c(c12)COC(C1CCN(C2CCOCC2)CC1)C3` (stereo not shown) [Compound I-72, 10-Methyl-3-(1-tetrahydropyran-4-yl-4-piperidyl)-1 3 4 5-tetrahydropyrano[4,3-c]isoquinolin-6-one] was tested. Which IC50 did it give?
Answer: 92.4 nM

Question: `COCCN1CCC(C2Cc3[nH]c(=O)c4cccc(C)c4c3CO2)CC1` (stereo not shown) [Compound I-73, 3-[1-(2-methoxyethyl)-4-piperidyl]-10-methyl-1 3 4 5-tetrahydropyrano[4,3-c]isoquinolin-6-one] was tested. Which IC50 did it give?
Answer: 29.4 nM

Question: With `Cc1cccc2c(=O)[nH]c3c(c12)COC(C1CCN(S(=O)(=O)C2CCOCC2)CC1)C3` (stereo not shown) [Compound I-74, 10-methyl-3-(1-tetrahydropyran-4-ylsulfonyl-4-piperidyl)-1 3 4 5-tetrahydropyrano[4,3-c]isoquinolin-6-one] as the compound, how does the IC50 read?
Answer: 9.5 nM

Question: For `Cc1cccc2c(=O)[nH]c3c(c12)COC(C1CCN(CCO)CC1)C3` (stereo not shown) [Compound I-75, 3-[1-(2-hydroxyethyl)-4-piperidyl]-10-methyl-1 3 4 5-tetrahydropyrano[4,3-c]isoquinolin-6-one], which IC50 is on record?
Answer: 27.2 nM

Question: For `Cc1cccc2c(=O)[nH]c3c(c12)COC(CC(C)O)C3` (stereo not shown) [Compound I-76, 3-(2-hydroxypropyl)-10-methyl-1 3 4 5-tetrahydropyrano[4,3-c]isoquinolin-6-one], which IC50 is on record?
Answer: 15.9 nM
